Experiment [1] has as its target T1, Induced myeloid leukemia cell differentiation protein Mcl-1 (Homo sapiens, UniProt Q07820).
The target of experiment [2] is T1, Induced myeloid leukemia cell differentiation protein Mcl-1. The source holds these as a separate data set.
Experiment [3] has the same target. This is another data set of the same source.
A further experiment has as its target Bcl-2-like protein 1 (Homo sapiens, UniProt Q07817).
In experiment [4] the target is T1, Induced myeloid leukemia cell differentiation protein Mcl-1. The source holds these as a separate data set.

T1 sequence (Q07820 whole entry): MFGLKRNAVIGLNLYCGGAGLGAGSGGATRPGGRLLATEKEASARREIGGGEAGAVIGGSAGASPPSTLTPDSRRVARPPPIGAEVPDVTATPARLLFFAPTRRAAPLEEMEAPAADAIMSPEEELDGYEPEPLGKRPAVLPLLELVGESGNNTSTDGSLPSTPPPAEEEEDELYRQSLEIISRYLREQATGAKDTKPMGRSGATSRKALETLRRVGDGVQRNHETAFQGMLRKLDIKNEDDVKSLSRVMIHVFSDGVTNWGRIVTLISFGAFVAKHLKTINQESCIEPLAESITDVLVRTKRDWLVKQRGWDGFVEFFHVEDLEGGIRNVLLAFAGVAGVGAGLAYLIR
Chain of Bcl-2-like protein 1 (Q07817 whole entry): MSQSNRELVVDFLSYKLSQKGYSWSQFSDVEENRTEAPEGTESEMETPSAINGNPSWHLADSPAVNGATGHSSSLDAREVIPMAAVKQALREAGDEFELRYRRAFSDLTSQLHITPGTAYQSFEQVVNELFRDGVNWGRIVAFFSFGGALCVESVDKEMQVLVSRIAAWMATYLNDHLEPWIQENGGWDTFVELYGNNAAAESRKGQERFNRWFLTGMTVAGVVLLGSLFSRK

On to `Cc1cc(OCCCc2c(C(=O)NS(=O)(=O)c3ccnc(NCCc4ccccc4)c3)[nH]c3c(-c4c(C)nn(C)c4C)c(Cl)ccc23)cc(C)c1Cl`, for which the Ki in experiment [1] was 0.0012 µM; in experiment [2] it was less than 0.01 µM; in experiment [3], 0.078 µM; on Bcl-2-like protein 1, 1.11 µM.

As for `Cc1cc(OCCCc2c(C(=O)NS(=O)(=O)c3cccc(CNC(=O)CC(C)C)c3)[nH]c3c(-c4c(C)nn(C)c4C)c(Cl)ccc23)cc(C)c1Cl`, the Ki is 0.0056 µM in experiment [1], less than 0.01 µM in experiment [2], 0.092 µM in experiment [3] and 1.57 µM at Bcl-2-like protein 1.

For the molecule `Cc1cc(OCCCc2c(C(=O)NS(=O)(=O)c3ccccc3)[nH]c3c(-c4c(C)n[nH]c4C)c(Cl)ccc23)cc(C)c1Cl`, the inhibitory constant (Ki) in experiment [2] is less than 0.01 µM; in experiment [3], 0.147 µM.

As to `Cc1cc(OCCCc2c(C(=O)NS(=O)(=O)c3ccccc3)[nH]c3c(-c4cccnc4C)c(Cl)ccc23)cc(C)c1Cl`, the Ki in experiment [1] was 0.018 µM; in experiment [2] it was less than 0.01 µM; in experiment [3] it was 0.146 µM.

`Cc1cc(OCCCc2c(C(=O)NS(=O)(=O)c3cccc(CNC(=O)c4cccn4C)c3)[nH]c3c(-c4c(C)nn(C)c4C)c(Cl)ccc23)cc(C)c1Cl`: the Ki in experiment [1] was 0.01 µM; in experiment [2] it was less than 0.01 µM; in experiment [3], 0.091 µM; at Bcl-2-like protein 1 it was greater than 50 µM.

In experiment [1], `Cc1cc(OCCCc2c(C(=O)NS(=O)(=O)c3ccc(C(=O)O)o3)[nH]c3c(-c4c(C)nn(C)c4C)c(Cl)ccc23)cc(C)c1Cl` had an IC50 of 0.0021 µM and a Ki of 0.00078 µM.

Take `Cc1cc(OCCCc2c(C(=O)NS(=O)(=O)c3ccccc3)[nH]c3c(-c4cccnc4)cccc23)cc(C)c1Cl`: in experiment [2], the Ki was 0.202 µM.

`Cc1cc(OCCCc2c(C(=O)NS(=O)(=O)CCNC(=O)c3ccco3)[nH]c3cc(Cl)ccc23)cc(C)c1Cl` returned a Ki in experiment [2] of 0.053 µM.

Regarding `Cc1cc(OCCCc2c(C(=O)NS(=O)(=O)CCNC(=O)c3ccccc3)[nH]c3ccccc23)cc(C)c1Cl`, the Ki in experiment [2] was determined as 0.43 µM.

In turn, `Cc1ccncc1-c1cccc2c(CCCOc3cc(C)c(Cl)c(C)c3)c(C(=O)NS(=O)(=O)c3ccccc3)[nH]c12` gave a Ki in experiment [2] of 0.036 µM.

In the case of `CC(=O)NCc1cccc(S(=O)(=O)NC(=O)c2[nH]c3c(-c4c(C)nn(C)c4C)c(Cl)ccc3c2CCCOc2cc(C)c(Cl)c(C)c2)c1`, the Ki was 0.0111 µM in experiment [1], less than 0.01 µM in experiment [2], 0.042 µM in experiment [3] and 9.07 µM at Bcl-2-like protein 1.

Turning to `Cc1cc(OCCCc2c(C(=O)NS(=O)(=O)c3ccc(C(=O)NCc4ccncc4)o3)[nH]c3c(-c4c(C)nn(C)c4C)c(Cl)ccc23)cc(C)c1Cl`, the Ki in experiment [1] was 0.0085 µM; in experiment [2] it was less than 0.01 µM; in experiment [3], 0.02 µM; at Bcl-2-like protein 1 it was greater than 50 µM.

`Cc1cc(OCCCc2c(C(=O)NS(=O)(=O)CCNC(=O)c3cccc(C(F)(F)F)c3)[nH]c3cc(Cl)ccc23)cc(C)c1Cl` gave an inhibition constant Ki in experiment [2] of 0.079 µM.

On to `Cc1cc(OCCCc2c(C(=O)NS(=O)(=O)c3cccc(CNC(=O)c4cccc(C(F)(F)F)c4)c3)[nH]c3c(-c4c(C)nn(C)c4C)c(Cl)ccc23)cc(C)c1Cl`, for which the inhibitory constant (Ki) in experiment [1] was 0.007 µM; in experiment [2], less than 0.01 µM; in experiment [3] it was 0.078 µM; on Bcl-2-like protein 1, 12.9 µM.

On to `Cc1cc(OCCCc2c(C(=O)NS(=O)(=O)CCNC(=O)C3CCCCC3)[nH]c3cc(Cl)ccc23)cc(C)c1Cl`, for which the affinity in experiment [2], expressed as Ki, was 0.055 µM.

The molecule `Cc1cc(OCCCc2c(C(=O)NS(=O)(=O)CCNC(=O)c3ccc4cc[nH]c4c3)[nH]c3ccccc23)cc(C)c1Cl` gave an inhibitory constant (Ki) in experiment [2] of 0.278 µM.

`Cc1cc(OCCCc2c(C(=O)NS(=O)(=O)c3ccccc3)[nH]c3c(-c4c(C)nn(C)c4C)c(Cl)ccc23)cc(C)c1Cl`: the inhibitory constant (Ki) in experiment [1] was 0.017 µM; in experiment [2], less than 0.01 µM; in experiment [3], 0.064 µM.

The molecule `Cc1cc(OCCCc2c(C(=O)NS(=O)(=O)CCNC(=O)CC3CCCCC3)[nH]c3ccccc23)cc(C)c1Cl` showed a Ki in experiment [2] of 1.1 µM.

As to `Cc1cc(OCCCc2c(C(=O)NS(=O)(=O)c3ccnc(N(C)CCc4ccccc4)c3)[nH]c3c(-c4c(C)nn(C)c4C)c(Cl)ccc23)cc(C)c1Cl`, the Ki in experiment [1] is 0.0025 µM; in experiment [2], less than 0.01 µM; in experiment [3], 0.226 µM; at Bcl-2-like protein 1, 0.943 µM.

For `Cc1cc(OCCCc2c(C(=O)NS(=O)(=O)c3cccc(CNC(=O)c4ccoc4)c3)[nH]c3c(-c4c(C)nn(C)c4C)c(Cl)ccc23)cc(C)c1Cl`, the Ki in experiment [1] is 0.0029 µM; in experiment [2], less than 0.01 µM; in experiment [3], 0.069 µM; on Bcl-2-like protein 1, 1.4 µM.

For `Cc1cc(OCCCc2c(C(=O)NS(=O)(=O)c3ccc(C(=O)NCc4ccccc4)o3)[nH]c3c(-c4c(C)nn(C)c4C)c(Cl)ccc23)cc(C)c1Cl`, the Ki in experiment [1] is 0.0024 µM; in experiment [2], less than 0.01 µM; in experiment [3], 0.084 µM; at Bcl-2-like protein 1 it was greater than 50 µM.

As for `Cc1cc(OCCCc2c(C(=O)NS(=O)(=O)CCNC(=O)CC(C)C)[nH]c3cc(Cl)ccc23)cc(C)c1Cl`, the inhibition constant (Ki) in experiment [2] worked out at 0.01 µM.

As for `Cc1cc(OCCCc2c(C(=O)NS(=O)(=O)c3ccccc3)[nH]c3c(-c4cccnc4C)cccc23)cc(C)c1Cl`, the inhibition constant (Ki) in experiment [2] turned out to be 0.014 µM.

On to `Cc1cc(OCCCc2c(C(=O)NS(=O)(=O)c3ccnc(NCCC(C)C)c3)[nH]c3c(-c4c(C)nn(C)c4C)c(Cl)ccc23)cc(C)c1Cl`, for which the Ki is 0.0056 µM in experiment [1], less than 0.01 µM in experiment [2], 0.179 µM in experiment [3] and 4.47 µM on Bcl-2-like protein 1.

`Cc1cc(OCCCc2c(C(=O)NS(=O)(=O)CCNC(=O)c3ccccc3F)[nH]c3ccccc23)cc(C)c1Cl` returned a Ki in experiment [2] of 0.336 µM.

For `Cc1cc(OCCCc2c(C(=O)NS(=O)(=O)c3ccccc3)[nH]c3c(-c4c(C)n[nH]c4C)cccc23)cc(C)c1Cl`, the inhibition constant (Ki) in experiment [2] was less than 0.01 µM; in experiment [3], 0.517 µM.

The molecule `Cc1cc(OCCCc2c(C(=O)NS(=O)(=O)CCNC(=O)[C@@H]3Cc4ccccc4N3)[nH]c3cc(Cl)ccc23)cc(C)c1Cl` came in with an inhibitory constant (Ki) in experiment [2] of 0.046 µM.

As for `Cc1cc(OCCCc2c(C(=O)NS(=O)(=O)c3cccc(CNC(=O)c4ccccc4C(F)(F)F)c3)[nH]c3c(-c4c(C)nn(C)c4C)c(Cl)ccc23)cc(C)c1Cl`, the Ki is 0.005 µM in experiment [1], less than 0.01 µM in experiment [2], 0.08 µM in experiment [3] and 4.47 µM on Bcl-2-like protein 1.

For the molecule `Cc1cc(OCCCc2c(C(=O)NS(=O)(=O)CCNC(=O)C(C)C)[nH]c3cc(Cl)ccc23)cc(C)c1Cl`, the Ki in experiment [2] was found to be 0.066 µM.

Consider `Cc1cc(OCCCc2c(C(=O)NS(=O)(=O)CCNC(=O)c3ccoc3)[nH]c3cc(Cl)ccc23)cc(C)c1Cl`, for which the Ki in experiment [2] stood at 0.019 µM.

Take `Cc1cc(OCCCc2c(C(=O)NS(=O)(=O)CCNC(=O)c3ccc(F)cc3)[nH]c3ccccc23)cc(C)c1Cl`: the Ki in experiment [2] was 0.117 µM.

On to `Oc1ccccc1-c1cc(C(F)(F)C(F)(F)F)[nH]n1`, for which the dissociation constant (Kd) in experiment [4] stood at 1500 µM.

The molecule `CCC(=O)NCCS(=O)(=O)NC(=O)c1[nH]c2cc(Cl)ccc2c1CCCOc1cc(C)c(Cl)c(C)c1` came in with an inhibition constant Ki in experiment [2] of 0.087 µM.

In experiment [2], `Cc1cc(OCCCc2c(C(=O)NS(=O)(=O)CCNC(=O)c3cn(C)c4ccccc34)[nH]c3ccccc23)cc(C)c1Cl` displayed an inhibitory constant (Ki) of 0.432 µM.

In the case of `Cc1cc(OCCCc2c(C(=O)NS(=O)(=O)c3ccnc(NC4Cc5ccccc5C4)c3)[nH]c3c(-c4c(C)nn(C)c4C)c(Cl)ccc23)cc(C)c1Cl`, the Ki is 0.001 µM in experiment [1], less than 0.01 µM in experiment [2], 0.061 µM in experiment [3] and 0.997 µM at Bcl-2-like protein 1.

With `Cc1cc(OCCCc2c(C(=O)NS(=O)(=O)c3cccc(CNC(=O)C(C)C)c3)[nH]c3c(-c4c(C)nn(C)c4C)c(Cl)ccc23)cc(C)c1Cl`, the Ki is 0.016 µM in experiment [1], less than 0.01 µM in experiment [2], 0.054 µM in experiment [3] and greater than 50 µM at Bcl-2-like protein 1.

The values are drawn from ChEMBL document CHEMBL3785006, “Discovery of 2-Indole-acylsulfonamide Myeloid Cell Leukemia 1 (Mcl-1) Inhibitors Using Fragment-Based Methods” (J Med Chem, 2016).
